Source: patent publication US12599136B2, “Substituted isophthalic acid diamides and their use as herbicides” (Bayer Aktiengesellschaft, priority 2020, dated 2026)

Tests used:
Type in all cases: in vivo
Abutilon theophrasti [1] = assay: Pre-emergence herbicidal action against ABUTH; settings: visual score after 3 weeks vs untreated controls
Description: (§1) Seeds of monocotyledonous and dicotyledonous weed plants and crop plants are laid out in sandy loam soil in wood-fiber pots and covered with soil. The compounds of the invention, formulated in the form of wettable powders (WP) or as emulsion concentrates (EC), are then applied to the surface of the covering soil in the form of an aqueous suspension or emulsion at a water application rate equivalent to 600 to 800 l/ha, with addition of 0.2% wetting agent. After the treatment, the pots are placed in a greenhouse and kept under good growth conditions for the trial plants. The damage to the test plants is scored visually after a test period of 3 weeks by comparison with untreated controls (herbicidal activity in percent (%): 100% activity=the plants have died, 0% activity=like control plants). […] The tables below illustrate, in an illustrative manner, the post-emergence herbicidal action of the compounds of the invention, the herbicidal activity being stated in percent.

Matricaria inodora [2] = assay: Pre-emergence herbicidal action against MATIN; settings: visual score after 3 weeks vs untreated controls
Description: as §1

Matricaria inodora [3] = assay: Post-emergence herbicidal action against MATIN; settings: 20 g/ha, visual assessment about 3 weeks after treatment
Procedure: (§2) Seeds of monocotyledonous and dicotyledonous weed and crop plants are laid out in sandy loam soil in wood-fiber pots, covered with soil and cultivated in a greenhouse under good growth conditions. 2 to 3 weeks after sowing, the test plants are treated at the one-leaf stage. The compounds of the invention, formulated in the form of wettable powders (WP) or as emulsion concentrates (EC), are then sprayed onto the green parts of the plants in the form of an aqueous suspension or emulsion at a water application rate equivalent to 600 to 800 l/ha, with addition of 0.2% wetting agent. After the test plants have been left to stand in the greenhouse under optimal growth conditions for about 3 weeks, the action of the preparations is assessed visually in comparison to untreated controls (herbicidal action in percent (%): 100% activity=the plants have died, 0% activity=like control plants). […] The tables below illustrate, in an illustrative manner, the post-emergence herbicidal action of the compounds of the invention, the herbicidal activity being stated in percent.

Pharbitis purpurea = assay: Post-emergence herbicidal action against PHBPU; settings: 20 g/ha, visual assessment about 3 weeks after treatment
Procedure: as §2

Setaria viridis [4] = assay: Pre-emergence herbicidal action against SETVI
Description: as §1

Digitaria sanguinalis = assay: Pre-emergence herbicidal action against DIGSA
Description: as §1

Amaranthus retroflexus [5] = assay: Pre-emergence herbicidal action against AMARE; settings: visual score after 3 weeks vs untreated controls
Description: as §1

Viola tricolor [6] = assay: Pre-emergence herbicidal action against VIOTR
Description: as §1

Amaranthus retroflexus [7] = assay: Post-emergence herbicidal action against AMARE; settings: visual assessment about 3 weeks after treatment
Procedure: as §2

Echinochloa crus-galli [8] = assay: Post-emergence herbicidal action against ECHCG; settings: visual assessment about 3 weeks after treatment
Procedure: as §2

Viola tricolor [9] = assay: Post-emergence herbicidal action against VIOTR
Procedure: as §2

Abutilon theophrasti [10] = assay: Post-emergence herbicidal action against ABUTH
Procedure: as §2

Alopecurus myosuroides [11] = assay: Pre-emergence herbicidal action against ALOMY; settings: visual score after 3 weeks vs untreated controls
Description: as §1

Alopecurus myosuroides [12] = assay: Post-emergence herbicidal action against ALOMY; settings: 20 g/ha
Procedure: as §2

Echinochloa crus-galli [13] = assay: Pre-emergence herbicidal action against ECHCG; settings: visual score after 3 weeks vs untreated controls
Description: as §1

Avena fatua = assay: Post-emergence herbicidal action against AVEFA; settings: 20 g/ha, visual assessment about 3 weeks after treatment
Procedure: as §2

Cyperus esculentus = assay: Pre-emergence herbicidal action against CYPES; settings: visual score after 3 weeks vs untreated controls
Description: as §1

Stellaria media [14] = assay: Pre-emergence herbicidal action against STEME; settings: 320 g/ha
Description: as §1

Stellaria media [15] = assay: Post-emergence herbicidal action against STEME; settings: 80 g/ha, visual assessment about 3 weeks after treatment
Procedure: as §2

Setaria viridis [16] = assay: Post-emergence herbicidal action against SETVI; settings: 80 g/ha, visual assessment about 3 weeks after treatment
Procedure: as §2

Veronica persica = assay: Pre-emergence herbicidal action against VERPE
Description: as §1

CCOC(=O)[C@@H]1CCCN1C(=O)c1c(C(F)(F)F)ccc(C(=O)Nc2nnnn2C)c1C [Example 1-401]
Pre-emergence action against ABUTH (Abutilon theophrasti [1]; 20 g/ha): 100%
Pre-emergence action against ABUTH (Abutilon theophrasti [1]; 80 g/ha): 100%
Pre-emergence action against MATIN (Matricaria inodora [2]; 80 g/ha): 90%
Post-emergence action against MATIN in % (Matricaria inodora [3]): 90%
Post-emergence action against PHBPU in % (Pharbitis purpurea): 80%
Pre-emergence action against SETVI (Setaria viridis [4]; 80 g/ha): 100%
Pre-emergence action against DIGSA (Digitaria sanguinalis; 20 g/ha): 90%
Pre-emergence action against DIGSA (Digitaria sanguinalis; 80 g/ha): 100%
Pre-emergence action against AMARE (Amaranthus retroflexus [5]; 20 g/ha): 100%
Pre-emergence action against AMARE (Amaranthus retroflexus [5]; 80 g/ha): 100%

Cn1nnnc1NC(=O)c1ccc(C(F)(F)F)c(C(=O)N(C2CC2)C2CC2)c1Cl [Example 1-144]
Pre-emergence action against ABUTH (Abutilon theophrasti [1]; 20 g/ha): 80%
Pre-emergence action against ABUTH (Abutilon theophrasti [1]; 80 g/ha): 100%
Pre-emergence action against VIOTR (Viola tricolor [6]; 20 g/ha): 80%
Pre-emergence action against VIOTR (Viola tricolor [6]; 80 g/ha): 100%
Pre-emergence action against MATIN (Matricaria inodora [2]; 20 g/ha): 90%
Pre-emergence action against MATIN (Matricaria inodora [2]; 80 g/ha): 100%
Pre-emergence action against DIGSA (Digitaria sanguinalis; 80 g/ha): 100%
Post-emergence action against AMARE in % (Amaranthus retroflexus [7]; 5 g/ha): 90%
Post-emergence action against AMARE in % (Amaranthus retroflexus [7]; 20 g/ha): 90%
Pre-emergence action against AMARE (Amaranthus retroflexus [5]; 20 g/ha): 90%
Pre-emergence action against AMARE (Amaranthus retroflexus [5]; 80 g/ha): 100%

CCN(C(=O)c1c(C(F)(F)F)ccc(C(=O)Nc2nnnn2CC)c1Cl)C1CC1 [Example 2-136]
Pre-emergence action against ABUTH (Abutilon theophrasti [1]; 20 g/ha): 100%
Pre-emergence action against ABUTH (Abutilon theophrasti [1]; 80 g/ha): 100%
Pre-emergence action against VIOTR (Viola tricolor [6]; 20 g/ha): 100%
Pre-emergence action against VIOTR (Viola tricolor [6]; 80 g/ha): 100%
Post-emergence action against ECHCG in % (Echinochloa crus-galli [8]; 20 g/ha): 90%
Post-emergence action against VIOTR in % (Viola tricolor [9]; 5 g/ha): 100%
Post-emergence action against VIOTR in % (Viola tricolor [9]; 20 g/ha): 100%
Pre-emergence action against MATIN (Matricaria inodora [2]; 20 g/ha): 80%
Pre-emergence action against MATIN (Matricaria inodora [2]; 80 g/ha): 100%
Post-emergence action against MATIN in % (Matricaria inodora [3]): 80%
Post-emergence action against ABUTH (Abutilon theophrasti [10]; 5 g/ha): 80%
Post-emergence action against ABUTH (Abutilon theophrasti [10]; 20 g/ha): 90%
Pre-emergence action against ALOMY (Alopecurus myosuroides [11]; 20 g/ha): 90%
Pre-emergence action against ALOMY (Alopecurus myosuroides [11]; 80 g/ha): 100%
Pre-emergence action against SETVI (Setaria viridis [4]; 80 g/ha): 100%
Post-emergence action against ALOMY (Alopecurus myosuroides [12]): 90%
Pre-emergence action against DIGSA (Digitaria sanguinalis; 20 g/ha): 90%
Pre-emergence action against DIGSA (Digitaria sanguinalis; 80 g/ha): 100%
Pre-emergence action against ECHCG (Echinochloa crus-galli [13]; 80 g/ha): 90%
Post-emergence action against AVEFA in % (Avena fatua): 80%
Post-emergence action against AMARE in % (Amaranthus retroflexus [7]; 5 g/ha): 100%
Post-emergence action against AMARE in % (Amaranthus retroflexus [7]; 20 g/ha): 100%
Pre-emergence action against AMARE (Amaranthus retroflexus [5]; 20 g/ha): 100%
Pre-emergence action against AMARE (Amaranthus retroflexus [5]; 80 g/ha): 100%

Cc1c(C(=O)Nc2nnnn2C)ccc(S(C)(=O)=O)c1C(=O)N(C)C [Example 1-395]
Pre-emergence action against ABUTH (Abutilon theophrasti [1]; 80 g/ha): 90%
Pre-emergence action against ABUTH (Abutilon theophrasti [1]; Dosage column 320 g/ha (heading prints 3200 g/ha)): 100%
Pre-emergence action against VIOTR (Viola tricolor [6]; 80 g/ha): 80%
Pre-emergence action against VIOTR (Viola tricolor [6]; 320 g/ha): 100%
Post-emergence action against ECHCG in % (Echinochloa crus-galli [8]; 20 g/ha): 100%
Post-emergence action against ECHCG in % (Echinochloa crus-galli [8]; 80 g/ha): 100%
Pre-emergence action against CYPES (Cyperus esculentus; 80 g/ha): 100%
Pre-emergence action against CYPES (Cyperus esculentus; 320 g/ha): 100%
Post-emergence action against VIOTR in % (Viola tricolor [9]; 80 g/ha): 90%
Pre-emergence action against MATIN (Matricaria inodora [2]; 320 g/ha): 100%
Pre-emergence action against STEME (Stellaria media [14]): 100%
Post-emergence action against STEME in % (Stellaria media [15]): 100%
Post-emergence action against ABUTH (Abutilon theophrasti [10]; 80 g/ha): 100%
Pre-emergence action against SETVI (Setaria viridis [4]; 320 g/ha): 100%
Post-emergence action against SETVI in % (Setaria viridis [16]): 90%
Pre-emergence action against VERPE (Veronica persica; 20 g/ha): 90%
Pre-emergence action against VERPE (Veronica persica; 80 g/ha): 100%
Pre-emergence action against VERPE (Veronica persica; 320 g/ha): 100%
Pre-emergence action against ECHCG (Echinochloa crus-galli [13]; 320 g/ha): 100%
Post-emergence action against AMARE in % (Amaranthus retroflexus [7]; 80 g/ha): 80%
Pre-emergence action against AMARE (Amaranthus retroflexus [5]; 80 g/ha): 100%
Pre-emergence action against AMARE (Amaranthus retroflexus [5]; 320 g/ha): 100%
